Test [1] has as its target T1, progesterone receptor (PR) (Homo sapiens, UniProt P06401).
T1 construct: expressed in transfected cells; host or cells: human U2-OS cells, stably transfected with pSG5-hPR
T1 sequence (P06401 1-933): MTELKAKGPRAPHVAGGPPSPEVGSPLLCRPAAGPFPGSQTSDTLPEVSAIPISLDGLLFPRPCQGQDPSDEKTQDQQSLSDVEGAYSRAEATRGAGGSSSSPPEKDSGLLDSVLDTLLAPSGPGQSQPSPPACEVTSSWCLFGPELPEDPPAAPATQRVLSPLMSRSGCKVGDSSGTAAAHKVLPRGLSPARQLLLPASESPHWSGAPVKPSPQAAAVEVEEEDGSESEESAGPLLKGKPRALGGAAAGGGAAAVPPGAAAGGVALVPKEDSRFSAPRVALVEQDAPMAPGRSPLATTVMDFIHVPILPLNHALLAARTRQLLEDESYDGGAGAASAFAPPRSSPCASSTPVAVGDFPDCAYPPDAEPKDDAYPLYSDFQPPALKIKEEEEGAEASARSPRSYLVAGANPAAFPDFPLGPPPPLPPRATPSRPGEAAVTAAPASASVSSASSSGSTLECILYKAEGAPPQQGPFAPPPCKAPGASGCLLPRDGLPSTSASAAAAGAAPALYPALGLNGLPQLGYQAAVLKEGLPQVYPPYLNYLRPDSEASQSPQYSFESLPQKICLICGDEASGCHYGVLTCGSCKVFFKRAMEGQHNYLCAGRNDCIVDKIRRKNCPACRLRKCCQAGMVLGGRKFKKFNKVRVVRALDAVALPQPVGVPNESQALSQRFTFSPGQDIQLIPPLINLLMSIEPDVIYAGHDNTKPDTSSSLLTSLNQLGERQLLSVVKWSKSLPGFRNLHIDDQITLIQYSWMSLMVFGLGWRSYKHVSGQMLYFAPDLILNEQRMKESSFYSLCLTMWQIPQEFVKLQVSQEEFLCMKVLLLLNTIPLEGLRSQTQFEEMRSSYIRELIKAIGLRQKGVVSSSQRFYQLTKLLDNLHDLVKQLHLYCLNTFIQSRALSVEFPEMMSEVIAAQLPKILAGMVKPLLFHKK
Briefly: U2-OS PR cell line (pSG5-hPR, 3×HRE-TATA-Luc reporter). The test is classed as cell-based. From the text: Reporter constructs were made using specific synthetic multimerized hormone responsive elements which were cloned upstream of the synthetic TATA box in the pGL3-TATA-Luc vector. Stable transfected cell lines were made, when necessary co-transfected with a specific receptor-containing expression plasmid pSG5.
The reporter construct comprises 3 tandem repeats of the hormone responsive element (HRE) oligonucleotide:
upstream of the minimal adenovirus E1B TATA promotor sequence ([…]) inserted in the multiple cloning site of the luciferase reporter construct pGL3 (as described in Legler et al., supra).
In order to determine the responsiveness of the U2-OS based steroid reporter cell lines, cells were plated in 96-wells plates and treated for 24 hours with hormone in the culture medium containing 5% charcoal-stripped serum.
The PR cell line was generated by stably transfecting the human U2-OS cell line with pSG5-hPR and the 3×HRE-TATA-Luc reporter constructs.

A further test addresses T2, ER-alpha (Homo sapiens, UniProt P03372).
T2 construct: expressed in transfected cells
T2 sequence (P03372 1-595): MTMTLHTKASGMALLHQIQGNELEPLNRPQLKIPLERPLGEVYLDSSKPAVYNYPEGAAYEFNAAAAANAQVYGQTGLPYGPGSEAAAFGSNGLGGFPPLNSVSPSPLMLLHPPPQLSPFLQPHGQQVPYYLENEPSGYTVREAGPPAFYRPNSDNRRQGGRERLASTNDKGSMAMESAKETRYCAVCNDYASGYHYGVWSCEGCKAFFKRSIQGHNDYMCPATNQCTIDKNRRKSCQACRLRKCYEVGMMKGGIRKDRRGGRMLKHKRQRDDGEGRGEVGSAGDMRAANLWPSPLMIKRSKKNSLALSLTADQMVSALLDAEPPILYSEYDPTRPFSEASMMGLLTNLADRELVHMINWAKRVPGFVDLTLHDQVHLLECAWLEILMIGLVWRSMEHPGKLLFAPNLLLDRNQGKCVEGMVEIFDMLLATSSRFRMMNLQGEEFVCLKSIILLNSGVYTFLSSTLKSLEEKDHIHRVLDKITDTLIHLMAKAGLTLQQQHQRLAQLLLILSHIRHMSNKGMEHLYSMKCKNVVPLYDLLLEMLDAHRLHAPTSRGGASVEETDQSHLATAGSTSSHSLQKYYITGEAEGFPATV
The test is described as follows: U2-OS ER-alpha luciferase reporter cell line. The test is classed as cell-based. A general note: A reporter such as luciferase makes a cellular process visible.

The source of these data is patent US20070141568A1, “Method for determining the presence of one or more ligands in a sample” (BioDetection Systems B.V., priority 2002, published 2007).

Like-named read-outs stand apart in the source and are kept apart here. Some results are limits rather than exact numbers.

Compound `C[C@]12CCC(=O)C[C@@H]1CC[C@@H]1[C@@H]2CC[C@]2(C)[C@@H](O)CC[C@@H]12` [dihydro-testosterone, 5α-dihydro-testosterone] gave an EC50 in test [1] of 3.98 µM.

`C[C@]12CC[C@H]3[C@@H](CCC4=CC(=O)CC[C@@]43C)[C@@H]1CC[C@@H]2O` [testosterone] showed an EC50 in test [1] of 7.94 µM.

For the compound `C[C@]12CC[C@H](O)CC1=CC[C@@H]1[C@@H]2CC[C@]2(C)C(=O)CC[C@@H]12` [DHEA], the “potency (logEC50) PR” value in test [1] (logEC50, U2-OS reporter cell line, 24 hours with hormone, 5% charcoal-stripped serum) is listed as over −5.0.

Take `C[C@]12CC[C@H]3[C@@H](CCC4=CC(=O)CC[C@@H]43)[C@@H]1CC[C@@H]2O` [Nandrolone]: the values for the EC50 (on ER-alpha; in test [1]) were 0.0398 µM and 0.00501 µM, respectively.

Turning to `C[C@@H]1C[C@H]2[C@@H]3CCC4=CC(=O)C=C[C@]4(C)[C@@]3(F)[C@@H](O)C[C@]2(C)[C@@]1(O)C(=O)CO` [Dexamethasone], in test [1] (logEC50, U2-OS reporter cell line, 24 hours with hormone, 5% charcoal-stripped serum, read-out: potency (logEC50) PR (converted)), the EC50 is over 10 µM.

As to `C[C@]1(O)CC[C@H]2[C@@H]3CCC4=CC(=O)CCC4=C3C=C[C@@]21C` [R1881], the EC50 on ER-alpha was over 10 µM.

Consider `C[C@]12CCC(=O)C=C1CC[C@@H]1[C@@H]2CC[C@]2(C)C(=O)CC[C@@H]12` [androstenedione], for which, at ER-alpha, the EC50 is over 10 µM.
